According to US10597388B2, “Pyridazinone herbicides” (FMC CORPORATION, priority 2014, dated 2020):

What was measured:
Format in all cases: in vivo
[1] = tested on: sedge, umbrella (small-flower umbrella sedge, Cyperus difformis); experiment: Test B flooded paddy test; conditions: 250 g ai/ha, Flood; visual rating on scale of 0 to 100 where 0 is no effect and 100 is complete control; 13 to 15 d after treatment
Outline: (§1)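 Ratings use a 0-100 visual scale, where 100 is complete control, and compare treated plants with controls after 13 to 15 d of greenhouse growth. Compound went straight into paddy water kept 3 cm over the soil surface, applied to seedlings at the 2-leaf stage.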

rice (Oryza sativa) = experiment: Test B flooded paddy test; conditions: 250 g ai/ha, Flood; visual rating on scale of 0 to 100 where 0 is no effect and 100 is complete control; 13 to 15 d after treatment
Outline: as §1

[2] = tested on: barnyardgrass (Echinochloa crus-galli); experiment: Test B flooded paddy test; conditions: 250 g ai/ha, Flood; visual rating on scale of 0 to 100 where 0 is no effect and 100 is complete control; 13 to 15 d after treatment
Outline: as §1

[3] = tested on: ducksalad (Heteranthera limosa); experiment: Test B flooded paddy test; conditions: 250 g ai/ha, Flood; visual rating on scale of 0 to 100 where 0 is no effect and 100 is complete control; 13 to 15 d after treatment
Outline: as §1

[4] = tested on: galium (catchweed bedstraw, Galium aparine); experiment: Test A greenhouse herbicide test, postemergence
Outline: (§2)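 Scores are visual injury ratings from 0 (no effect) to 100 (complete control) versus untreated plants, taken roughly 10 d after treatment in the greenhouse. Treatment was postemergence, on one- to two-leaf plants 2–10 cm high growing in a loam soil/sand mix.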

[5] = tested on: blackgrass (Alopecurus myosuroides); experiment: Test A greenhouse herbicide test, postemergence
Outline: as §2

[6] = tested on: ryegrass, Italian (Italian ryegrass, Lolium multiflorum); experiment: Test A greenhouse herbicide test, pre- and postemergence
Outline: (§3)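 Visual injury ratings, 0 (no effect) to 100 (complete control), versus untreated plants after roughly 10 d in a greenhouse. Compounds, formulated in a surfactant-containing non-phytotoxic solvent, were sprayed on loam–sand soil after sowing (pre) or on one- to two-leaf plants 2–10 cm tall (post).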

corn (Zea mays) = experiment: as above; conditions: Postemergence
Outline: as §3

[7] = tested on: barnyardgrass (Echinochloa crus-galli); experiment: as above
Outline: as §3

[8] = tested on: pigweed (Amaranthus retroflexus); experiment: as above
Outline: as §3

[9] = tested on: wheat (Triticum aestivum); experiment: as above; conditions: Postemergence
Outline: as §3

[10] = tested on: ragweed (common ragweed, Ambrosia elatior); experiment: as above
Outline: as §3

[11] = tested on: foxtail, giant (giant foxtail, Setaria faberii); experiment: as above
Outline: as §3

kochia (Kochia scoparia) = experiment: as above
Outline: as §3

[12] = 125 g ai/ha, 0 to 100 scale, 0 no effect, 100 complete control
[13] = 500 g ai/ha, visual rating after approx. 10 d, 0 to 100 scale (0 no effect, 100 complete control)
[14] = Postemergence, 125 g ai/ha, 0 to 100 scale, 0 no effect, 100 complete control
[15] = Postemergence, 500 g ai/ha, visual rating after approx. 10 d, 0 to 100 scale (0 no effect, 100 complete control)
[16] = Preemergence, 125 g ai/ha, visual injury rating, 0 to 100 scale (0 no effect, 100 complete control), approx. 10 d
[17] = Preemergence, 500 g ai/ha, 0 to 100 scale where 0 is no effect and 100 is complete control
[18] = 1000 g ai/ha, 0 to 100 scale, 0 is no effect, 100 is complete control
[19] = Postemergence, 1000 g ai/ha, 0 to 100 scale, 0 is no effect, 100 is complete control
[20] = Preemergence, 1000 g ai/ha, 0 to 100 scale, 0 no effect, 100 complete control

Cc1n[nH]c(=O)c(-c2cccc3ccccc23)c1OC(F)F [Compound 175]
20: Plant response rating, Blackgrass [5, 13] | Plant response rating, Ryegrass, Italian [6, 14] | Plant response rating, Ryegrass, Italian [6, 16] | Plant response rating, Ryegrass, Italian [6, 17] | Plant response rating, Corn (corn (Zea mays); [13]) | Plant response rating, Wheat [9, 13] | Plant response rating, Ragweed [10, 17] | Plant response rating, Kochia (kochia (Kochia scoparia); [17])
60: Plant response rating, Pigweed [8, 17]
0: Plant response rating, Sedge, Umbrella [1] | Plant response rating, Rice (rice (Oryza sativa)) | Plant response rating, Barnyardgrass [2] | Plant response rating, Ducksalad [3] | Plant response rating, Galium [4, 12] | Plant response rating, Galium [4, 13] | Plant response rating, Blackgrass [5, 12] | Plant response rating, Corn (corn (Zea mays); [12]) | Plant response rating, Barnyardgrass [7, 14] | Plant response rating, Barnyardgrass [7, 15] | Plant response rating, Barnyardgrass [7, 16] | Plant response rating, Barnyardgrass [7, 17] | Plant response rating, Pigweed [8, 14] | Plant response rating, Pigweed [8, 15] | Plant response rating, Pigweed [8, 16] | Plant response rating, Wheat [9, 12] | Plant response rating, Ragweed [10, 14] | Plant response rating, Ragweed [10, 15] | Plant response rating, Ragweed [10, 16] | Plant response rating, Foxtail, Giant [11, 14] | Plant response rating, Foxtail, Giant [11, 15] | Plant response rating, Foxtail, Giant [11, 16] | Plant response rating, Foxtail, Giant [11, 17] | Plant response rating, Kochia (kochia (Kochia scoparia); [14]) | Plant response rating, Kochia (kochia (Kochia scoparia); [15]) | Plant response rating, Kochia (kochia (Kochia scoparia); [16])
30: Plant response rating, Ryegrass, Italian [6, 15]

Cc1ccc2ccccc2c1-c1c(O)c([N+](=O)[O-])nn(C)c1=O [Compound 177]
0: Plant response rating, Sedge, Umbrella [1] | Plant response rating, Rice (rice (Oryza sativa)) | Plant response rating, Barnyardgrass [2] | Plant response rating, Ducksalad [3] | Plant response rating, Galium [4, 12] | Plant response rating, Galium [4, 13] | Plant response rating, Blackgrass [5, 12] | Plant response rating, Blackgrass [5, 13] | Plant response rating, Ryegrass, Italian [6, 14] | Plant response rating, Ryegrass, Italian [6, 15] | Plant response rating, Ryegrass, Italian [6, 16] | Plant response rating, Ryegrass, Italian [6, 17] | Plant response rating, Corn (corn (Zea mays); [12]) | Plant response rating, Corn (corn (Zea mays); [13]) | Plant response rating, Barnyardgrass [7, 14] | Plant response rating, Barnyardgrass [7, 15] | Plant response rating, Barnyardgrass [7, 16] | Plant response rating, Barnyardgrass [7, 17] | Plant response rating, Pigweed [8, 14] | Plant response rating, Pigweed [8, 15] | Plant response rating, Pigweed [8, 16] | Plant response rating, Pigweed [8, 17] | Plant response rating, Wheat [9, 12] | Plant response rating, Wheat [9, 13] | Plant response rating, Ragweed [10, 14] | Plant response rating, Ragweed [10, 15] | Plant response rating, Ragweed [10, 16] | Plant response rating, Ragweed [10, 17] | Plant response rating, Foxtail, Giant [11, 14] | Plant response rating, Foxtail, Giant [11, 15] | Plant response rating, Foxtail, Giant [11, 16] | Plant response rating, Foxtail, Giant [11, 17] | Plant response rating, Kochia (kochia (Kochia scoparia); [14]) | Plant response rating, Kochia (kochia (Kochia scoparia); [15]) | Plant response rating, Kochia (kochia (Kochia scoparia); [16]) | Plant response rating, Kochia (kochia (Kochia scoparia); [17])

Cc1nn(C)c(=O)c(-c2cccc3ccccc23)c1OCC=Cc1ccccc1 [Compound 180]
0: Plant response rating, Sedge, Umbrella [1] | Plant response rating, Rice (rice (Oryza sativa)) | Plant response rating, Barnyardgrass [2] | Plant response rating, Ducksalad [3] | Corn plant response rating (corn (Zea mays); [18]) | Barnyardgrass plant response rating [7, 19] | Plant response rating, Barnyardgrass [7, 20] | Wheat plant response rating [9, 18] | Ragweed plant response rating [10, 19] | Foxtail, Giant plant response rating [11, 19] | Plant response rating, Kochia (kochia (Kochia scoparia); [20])
70: Ryegrass, Italian plant response rating [6, 19]
80: Galium plant response rating [4, 18]
30: Blackgrass plant response rating [5, 18]
40: Plant response rating, Pigweed [8, 20] | Plant response rating, Ragweed [10, 20] | Kochia plant response rating (kochia (Kochia scoparia); [19])
50: Plant response rating, Ryegrass, Italian [6, 20] | Pigweed plant response rating [8, 19]
10: Plant response rating, Foxtail, Giant [11, 20]
